From patent US20150313913A1, “POSITIVE ALLOSTERIC MODULATORS OF THE GABA-A RECEPTOR IN THE TREATMENT OF AUTISM” (UNIVERSITY OF WASHINGTON THROUGH ITS CENTER FOR …, priority 2013, published 2015)
Entries after “also recorded” stand apart in the source; their conditions may differ.

Columns and labels:
[1] = test system: Scn1a+/− mice; test: Contextual fear-conditioning test; format: in vivo; details: single i.p. 0.0625 mg/kg 30 min before training, listed as CLZ
Description: (§1) The contextual fear-conditioning chamber was a square arena (25×25 cm) with clear PLEXIGLAS™ walls and a metal grid floor connected to a circuit board that delivered shocks to the metal grid (COULBOURN INSTRUMENTS™). An analog camera was attached on top of the chamber. The camera and the circuit board were connected to a personal computer, and its software (FREEZE FRAME™ 2.0, ACTIMETRICS™) controlled the circuit and recorded the data. The chamber was cleaned with 70% ethanol and wiped with paper towels before each session. In the habituation session, a test mouse was placed in the chamber and allowed to explore for 2 min^66-69. Immediately after habituation, the test mouse received a single mild foot shock (2 s, 0.5 mA). After staying in the chamber one more min, the mouse was removed from the chamber. For the 30-min short-term memory test, the mouse was returned to the context 30 min after the end of the training session. […] The movement of mice was also recorded by a USB webcam (LIFECAM™ HD-6000, MICROSOFT™) and PC-based video capture software (WINAVI™ Video Capture, ZJ MEDIA DIGITAL TECHNOLOGY™) for 2 min. The recorded video file was further analyzed by off-line video tracking software (ETHOVISION™ XT 7.0, NOLDUS TECHNOLOGY™). The freezing scores were calculated by dividing the test session into 1 min bouts and averaging together all 2 min for each animal. […]

[2] = test system: wild-type mice; test: Contextual fear-conditioning test; format: in vivo; details: 0.0625 mg/kg, listed as CLZ
Description: as §1

[3] = test system: C57BL/6J mice; test: Context-dependent fear conditioning test; format: in vivo
Description: The contextual fear-conditioning chamber was a square arena (25×25 cm) with clear PLEXIGLAS™ walls and a metal grid floor connected to a circuit board that delivered shocks to the metal grid (COULBOURN INSTRUMENTS™). An analog camera was attached on top of the chamber. The camera and the circuit board were connected to a personal computer, and its software (FREEZE FRAME™ 2.0, ACTIMETRICS™) controlled the circuit and recorded the data. The chamber was cleaned with 70% ethanol and wiped with paper towels before each session. In the habituation session, a test mouse was placed in the chamber and allowed to explore for 2 min^66-69. Immediately after habituation, the test mouse received a single mild foot shock (2 s, 0.5 mA). After staying in the chamber one more min, the mouse was removed from the chamber. For the 30-min short-term memory test, the mouse was returned to the context 30 min after the end of the training session. For 24-hr long-term memory test, the mouse was returned to the context 24 hr after the training session. The movement of mice was also recorded by a USB webcam (LIFECAM™ HD-6000, MICROSOFT™) and PC-based video capture software (WINAVI™ Video Capture, ZJ MEDIA DIGITAL TECHNOLOGY™) for 2 min. The recorded video file was further analyzed by off-line video tracking software (ETHOVISION™ XT 7.0, NOLDUS TECHNOLOGY™). The freezing scores were calculated by dividing the test session into 1 min bouts and averaging together all 2 min for each animal. All data shown.
Freezing behavior is defined as the period during which the velocity of the test mouse is less than 1.75 cm/s, and non-freezing behavior is defined as the period during which the velocity of the mouse is greater than 2 cm/s.

[4] = test system: C57BL/6J mice; test: Barnes circular maze test; format: in vivo; details: 0.05 mg/kg
Description: (§2) The Barnes circular maze is a planar, round white PLEXIGLAS™ platform (92 cm diameter), 1 m above the floor, with 20 evenly spaced holes (7 cm diameter) located 5 cm from the perimeter. A black escape box (15×7×7 cm) was placed under one hole. Spatial cues with distinct patterns and shapes were placed on the wall of the testing room. A 500 lux light was turned on during the trial. An experimenter remained in the same place with minimal movement throughout the trials. The platform and the escape box were cleaned thoroughly with 70% ethanol and paper towels between each trial to remove olfactory cues. One day before the training trials began, test mice were habituated in the target box for 3 min. The training trials were repeated for 4 consecutive days, and 3 trials were performed each day with 20 min inter-trial intervals. At the beginning of each trial, a test mouse was placed in a cylindrical holding chamber (10 cm diameter) located in the center of the maze. After 10 s of holding time, the mouse was allowed to search for the target hole for 3 min. […] When the mouse entered the escape box, the light was turned off and the mouse remained undisturbed for 1 min. The movement of the mouse was recorded, and the number of errors made and the latency to find the target hole were measured during the training trials by video tracking software. On day 5, the probe trial was performed with each mouse. The escape box was removed, and the test mouse was allowed to find the target hole freely for 90 s. During the probe trial, total distance traveled and the latency to find the target hole were measured. % correct pokes and % time in the target area were also measured.
(§3) The number of errors made and the latency to find the target hole were measured during the 3 min-training trials by video tracking software.
(§4) During the 90 second-probe trial, the latency to find the target hole, % correct pokes, and % time in the target area were measured by the video-tracking software (EthoVision XT 8.5, Noldus Technology).

[5] = test system: BTBR mice; test: Barnes circular maze test; format: in vivo
Description: as §2, §3, §4

[6] = test system: Scn1a+/− mice; test: Open-field social interaction test; format: in vivo; details: single i.p. 0.0625 mg/kg 30 min before test, listed as CLZ
Method: (§5) The open-field social interaction test was performed as described previously^64 with minor modifications. The test was performed in the open field arena that was used for the open field test. An age- and gender-matched C57Bl/6J mouse (M) caged in a rectangular wire mesh cage (6×6×10 cm), was used as a social cue. The stranger mouse had never been exposed to the test mouse. The test mouse was placed in the open field arena with an empty wire cage for 10 min for habituation. Following the 10 min session, a stranger mouse was placed in the same cage and the test mouse was allowed to explore the arena for another 10 min. The empty cage or caged stranger mouse was placed in the center of one quadrant of the arena, and immobilized on the floor of the arena with double-sided tape. […] The movement of the mouse was recorded with a USB webcam (LIFECAM™ HD-6000, MICROSOFT™) and PC-based video-capture software (WINAVI™ Video Capture, ZJ MEDIA DIGITAL TECHNOLOGY™). The recorded video file was further analyzed by off-line video tracking software (ETHOVISION™ XT 7.0). Time spent in the cage-containing quadrant, and time spent in the area 5 cm proximal to the cage were measured. Immobilization behavior was also measured by video tracking software. […] All data shown are means±s.e.m. and analyzed using two-way ANOVA with Bonferroni's post hoc analysis. […]

[7] = test system: wild-type mice; test: Open-field social interaction test; format: in vivo; details: 0.0625 mg/kg, listed as CLZ
Method: as §5

[8] = test system: GABA-A α4 or α6 subtypes; details: cited from earlier work
[9] = cited from earlier work
[10] = test system: GABA-A α2, α3 and α5 subtypes; details: cited from earlier work

Compound | short-term (30 min) and long-term (24 h) fear-associated contextual memory [1] | fear-associated contextual memory [2] | cognitive changes in fear conditioning ([3]; clonazepam, any dose (0-0.1 mg/kg)) | learning performance and spatial memory [4] | spatial learning during training sessions (latency, errors) ([5]; 0.05 mg/kg) | spatial memory in probe trials ([5]; single low dose 30 min prior) | social interaction, open field social interaction test [6] | social interaction, open field social interaction test [7] | affinity for the α4 or α6 subtypes [8] | memory of the spatial context ([3]; 0.05 mg/kg L838,417) | substitution for chlordiazepoxide in animals ([9]; drug discrimination) | substitution for zolpidem in animals ([9]; drug discrimination) | sedative effects in animal studies ([9]; even at high doses) | action at α2, α3 and α5 subtypes [10]
O=C1CN=C(c2ccccc2Cl)c2cc([N+](=O)[O-])ccc2N1 [Clonazepam] | complete reversal; also recorded: complete rescue | unaffected; also recorded: no significant change | no cognitive changes | regardless of clonazepam treatment; also recorded: significantly worsened | significantly improved | increased | completely rescued; also recorded: completely restored; also recorded: completely recovered | no effect; also recorded: absent; also recorded: not changed |  |  |  |  |  | 
Cn1ncnc1COc1nn2c(-c3cc(F)ccc3F)nnc2cc1C(C)(C)C [L-838,417] |  |  |  |  |  |  |  |  | little affinity | no effect | substitutes for the anxiolytic benzodiazepine chlordiazepoxide | not for the hypnotic imidazopyridine drug zolpidem | no sedative effects | partial agonist
